Ki data for 23 compounds are collected here from patent US7858630B2, “D3 and 5-HT2A receptor modulators” (Hoffmann-La Roche Inc., priority 2008, dated 2010).

pKi: −log10 of the molar value.

Assay [1] deals with T1, human dopamine D2 receptor (Homo sapiens, UniProt P14416).
T1 construct: expressed in transfected cells; host or cells: HEK-293 EBNA cells, transient transfection; membrane preparation
Description: Radioligand binding ([3H]-spiperone) to membranes of HEK-293 EBNA cells expressing human D2 receptor. As to conditions: human D2, 0.7 nM [3H]-spiperone, HEK-293 EBNA membranes, 1 h at RT. The essentials: (§1)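 Membranes from HEK-293 EBNA cells transiently transfected with the receptor were incubated 1 h at RT with ten test concentrations (10 μM–0.1 nM) and ~0.7 nM [3H]-spiperone (D2), 0.5 nM [3H]-spiperone (D3) or 1.1 nM [3H]-ketanserin (5-HT2A). Nonspecific binding was set with 10 μM spiperone, bound radioactivity was read by filtration and scintillation, and Ki was taken from IC50 via Cheng-Prusoff.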

Assay [2] addresses T2, human serotonin 5-HT2A receptor (Homo sapiens, UniProt P28223).
T2 construct: expressed in transfected cells; host or cells: HEK-293 EBNA cells, transient transfection; membrane preparation
Kind of assay: Radioligand binding ([3H]-ketanserin) to membranes of HEK-293 EBNA cells expressing human 5-HT2A receptor. As to conditions: 1.1 nM [3H]-ketanserin, HEK-293 EBNA membranes, 1 h at RT. The essentials:
as §1

Assay [3] has as its target T3, human dopamine D3 receptor (Homo sapiens, UniProt P35462).
T3 construct: expressed in transfected cells; host or cells: HEK-293 EBNA cells, transient transfection; membrane preparation
Description: Radioligand binding ([3H]-spiperone) to membranes of HEK-293 EBNA cells expressing human D3 receptor. As to conditions: human D3, 0.5 nM [3H]-spiperone, HEK-293 EBNA membranes, 1 h at RT. The method in brief: as §1

T1 sequence (P14416 whole entry): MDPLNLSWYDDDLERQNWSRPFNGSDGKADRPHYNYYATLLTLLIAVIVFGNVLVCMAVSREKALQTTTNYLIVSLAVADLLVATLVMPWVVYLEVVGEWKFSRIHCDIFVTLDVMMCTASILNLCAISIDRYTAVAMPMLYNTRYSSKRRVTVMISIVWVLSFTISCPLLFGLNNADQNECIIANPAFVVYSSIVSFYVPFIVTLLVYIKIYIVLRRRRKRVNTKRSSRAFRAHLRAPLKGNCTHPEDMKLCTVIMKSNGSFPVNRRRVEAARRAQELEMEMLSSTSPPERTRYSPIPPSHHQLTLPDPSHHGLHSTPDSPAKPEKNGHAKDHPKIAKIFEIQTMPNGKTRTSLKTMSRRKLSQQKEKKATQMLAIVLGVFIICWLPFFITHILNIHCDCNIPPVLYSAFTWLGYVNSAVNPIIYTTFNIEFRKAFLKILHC
T3 sequence (P35462 whole entry): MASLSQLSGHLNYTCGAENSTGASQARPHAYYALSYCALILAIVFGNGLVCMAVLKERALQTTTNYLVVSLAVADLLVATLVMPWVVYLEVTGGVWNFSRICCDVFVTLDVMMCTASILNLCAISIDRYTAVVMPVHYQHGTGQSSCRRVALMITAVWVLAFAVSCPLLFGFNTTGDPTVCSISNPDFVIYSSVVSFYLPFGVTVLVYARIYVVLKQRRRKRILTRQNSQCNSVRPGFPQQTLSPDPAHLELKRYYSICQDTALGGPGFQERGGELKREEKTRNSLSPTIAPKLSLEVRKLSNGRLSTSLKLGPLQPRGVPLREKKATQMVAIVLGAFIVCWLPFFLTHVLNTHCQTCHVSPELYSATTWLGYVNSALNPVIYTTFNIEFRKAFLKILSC
T2 sequence (P28223 whole entry): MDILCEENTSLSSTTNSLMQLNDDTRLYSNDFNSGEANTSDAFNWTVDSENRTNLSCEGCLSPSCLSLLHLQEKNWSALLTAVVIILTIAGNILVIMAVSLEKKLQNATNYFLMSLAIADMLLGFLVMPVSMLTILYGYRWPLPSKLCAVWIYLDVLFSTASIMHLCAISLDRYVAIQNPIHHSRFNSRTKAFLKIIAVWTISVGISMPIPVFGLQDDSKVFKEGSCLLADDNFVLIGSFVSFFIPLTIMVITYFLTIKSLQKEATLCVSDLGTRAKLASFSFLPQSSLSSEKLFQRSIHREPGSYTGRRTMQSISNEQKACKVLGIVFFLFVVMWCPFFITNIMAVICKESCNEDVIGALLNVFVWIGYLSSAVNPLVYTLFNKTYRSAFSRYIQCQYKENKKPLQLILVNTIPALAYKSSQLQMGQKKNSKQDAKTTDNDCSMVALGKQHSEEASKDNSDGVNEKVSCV

As for `CC(=O)N[C@H]1CC[C@H](CCN2CCN(c3noc4cc(Cl)ccc34)CC2)CC1` [Example 30, N-trans-(4-{2-[4-(6-Chloro-benzo[d]isoxazol-3-yl)-piperazin-1-yl]-ethyl}-cyclohexyl)-acetamide], the pKi was 6.17 in assay [1], 8.06 in assay [2] and 8.04 in assay [3].
The matching figures for `CC(=O)N[C@H]1CC[C@H](CCN2CCN(c3noc4cc(F)c(F)cc34)CC2)CC1` [Example 56, N-trans-(4-{2-[4-(5,6-Difluoro-benzo[d]isoxazol-3-yl)-piperazin-1-yl]-ethyl}-cyclohexyl)-acetamide]: 6.42, 7.92 and 8.23.
The matching figures for `CS(=O)(=O)N[C@H]1CC[C@H](CCN2CCN(c3noc4ccc(F)cc34)CC2)CC1` [Example 14, N-trans-(4-{2-[4-(5-Fluoro-benzo[d]isoxazol-3-yl)-piperazin-1-yl]-ethyl}-cyclohexyl)-methanesulfonamide]: 5.97, 7.55 and 8.47.
Taken in the same sequence, the figures for `O=C(CO)N[C@H]1CC[C@H](CCN2CCN(c3noc4ccccc34)CC2)CC1` [Example 4, N-trans-{4-[2-(4-Benzo[d]isoxazol-3-yl-piperazin-1-yl)-ethyl]-cyclohexyl}-2-hydroxy-acetamide] were 6.29, 8.47 and 7.78.
With `COC(=O)N[C@H]1CC[C@H](CCN2CCN(c3noc4cc(F)c(Cl)cc34)CC2)CC1` [Example 91, N-trans-(4-{2-[4-(5-Chloro-6-fluoro-benzo[d]isoxazol-3-yl)-piperazin-1-yl]-ethyl}-cyclohexyl)-carbamic acid methyl ester], the pKi was 6.71 in assay [1], 8.74 in assay [2] and 9.24 in assay [3].
Taken in the same sequence, the figures for `O=C(CC1CCOCC1)N[C@H]1CC[C@H](CCN2CCN(c3noc4cc(Cl)ccc34)CC2)CC1` [Example 40, N-trans-(4-{2-[4-(6-Chloro-benzo[d]isoxazol-3-yl)-piperazin-1-yl]-ethyl}-cyclohexyl)-2-(tetrahydro-pyran-4-yl)-acetamide] were 5.97, 7.95 and 8.15.
Taken in the same sequence, the figures for `O=C(C[C@H]1CC[C@H](O)CC1)N[C@H]1CC[C@H](CCN2CCN(c3noc4cc(Cl)ccc34)CC2)CC1` [Example 43, N-trans-(4-{2-[4-(6-Chloro-benzo[d]isoxazol-3-yl)-piperazin-1-yl]-ethyl}-cyclohexyl)-2-trans-(4-hydroxy-cyclohexyl)-acetamide] were 5.53, 8.49 and 7.90.
The matching figures for `O=C(CC1CCOCC1)N[C@H]1CC[C@H](CCN2CCN(c3noc4ccc(F)cc34)CC2)CC1` [Example 8, N-trans-(4-{2-[4-(5-Fluoro-benzo[d]isoxazol-3-yl)-piperazin-1-yl]-ethyl}-cyclohexyl)-2-(tetrahydro-pyran-4-yl)-acetamide]: 5.77, 7.57 and 8.11.
As to `CO[C@H]1CC[C@H](C(=O)N[C@H]2CC[C@H](CCN3CCN(c4noc5cc(Cl)ccc45)CC3)CC2)CC1` [Example 54, 4-trans-Methoxy-cyclohexanecarboxylic acid N-trans-(4-{2-[4-(6-chloro-benzo[d]isoxazol-3-yl)-piperazin-1-yl]-ethyl}-cyclohexyl)-amide], the results for the pKi in assay [1], in assay [2] and in assay [3] were 5.41, 8.08 and 7.30, respectively.
Taken in the same sequence, the figures for `COC1CCN(CC(=O)N[C@H]2CC[C@H](CCN3CCN(c4noc5ccc(F)cc45)CC3)CC2)CC1` [Example 25, N-trans-(4-{2-[4-(5-Fluoro-benzo[d]isoxazol-3-yl)-piperazin-1-yl]-ethyl}-cyclohexyl)-2-(4-methoxy-piperidin-1-yl)-acetamide] were 6.30, 7.88 and 7.85.
The matching figures for `COCC(=O)N[C@H]1CC[C@H](CCN2CCN(c3noc4ccc(F)cc34)CC2)CC1` [Example 9, N-trans-(4-{2-[4-(5-Fluoro-benzo[d]isoxazol-3-yl)-piperazin-1-yl]-ethyl}-cyclohexyl)-2-methoxy-acetamide]: 5.73, 7.63 and 8.13.
The matching figures for `COC(CC(=O)N[C@H]1CC[C@H](CCN2CCN(c3noc4cc(C)ccc34)CC2)CC1)OC` [Example 103, 3,3-Dimethoxy-N-trans-(4-{2-[4-(6-methyl-benzo[d]isoxazol-3-yl)-piperazin-1-yl]-ethyl}-cyclohexyl)-propionamide]: 6.69, 8.64 and 8.16.
In the case of `Cc1cc2c(N3CCN(CC[C@H]4CC[C@H](NC(=O)C[C@@H]5COCCO5)CC4)CC3)noc2cc1F` [Example 114, 2-(R)-[1,4]Dioxan-2-yl-N-trans-(4-{2-[4-(6-fluoro-5-methyl-benzo[d]isoxazol-3-yl)-piperazin-1-yl]-ethyl}-cyclohexyl)-acetamide], the pKi in assay [1] was less than 5.01; in assay [2], 7.77; in assay [3], 7.51.
Taken in the same sequence, the figures for `O=C(CO)N[C@H]1CC[C@H](CCN2CCN(c3noc4cc(Cl)ccc34)CC2)CC1` [Example 42, N-trans-(4-{2-[4-(6-Chloro-benzo[d]isoxazol-3-yl)-piperazin-1-yl]-ethyl}-cyclohexyl)-2-hydroxy-acetamide] were 6.09, 8.16 and 7.96.
The matching figures for `COCC(=O)N[C@H]1CC[C@H](CCN2CCN(c3noc4cc(F)c(F)cc34)CC2)CC1` [Example 60, N-trans-(4-{2-[4-(5,6-Difluoro-benzo[d]isoxazol-3-yl)-piperazin-1-yl]-ethyl}-cyclohexyl)-2-methoxy-acetamide]: 6.06, 8.02 and 7.69.
Take `O=C(CC1CCOCC1)N[C@H]1CC[C@H](CCN2CCN(c3noc4cc(Cl)c(F)cc34)CC2)CC1` [Example 72, N-trans-(4-{2-[4-(6-Chloro-5-fluoro-benzo[d]isoxazol-3-yl)-piperazin-1-yl]-ethyl}-cyclohexyl)-2-(tetrahydro-pyran-4-yl)-acetamide]: the negative logarithm of the Ki (pKi) in assay [1] is 4.95; in assay [2] it was 7.44; in assay [3], 7.61.
Turning to `COCC(=O)N[C@H]1CC[C@H](CCN2CCN(c3noc4cc(F)c(C)cc34)CC2)CC1` [Example 107, N-trans-(4-{2-[4-(6-Fluoro-5-methyl-benzo[d]isoxazol-3-yl)-piperazin-1-yl]-ethyl}-cyclohexyl)-2-methoxy-acetamide], the pKi is 6.17 in assay [1], 7.95 in assay [2] and 7.70 in assay [3].
As for `CCOCC(=O)N[C@H]1CC[C@H](CCN2CCN(c3noc4cc(F)c(C)cc34)CC2)CC1` [Example 110, 2-Ethoxy-N-trans-(4-{2-[4-(6-fluoro-5-methyl-benzo[d]isoxazol-3-yl)-piperazin-1-yl]-ethyl}-cyclohexyl)-acetamide], the negative-log Ki (pKi) in assay [1] is 5.81; in assay [2], 8.00; in assay [3], 7.50.
The matching figures for `Cc1cc2c(N3CCN(CC[C@H]4CC[C@H](NC(=O)C[C@H](O)C(F)(F)F)CC4)CC3)noc2cc1F` [Example 116, (S)-4,4,4-Trifluoro-N-trans-(4-{2-[4-(6-fluoro-5-methyl-benzo[d]isoxazol-3-yl)-piperazin-1-yl]-ethyl}-cyclohexyl)-3-hydroxy-butyramide]: 5.48, 7.48 and 7.70.
Consider `COCCC(=O)N[C@H]1CC[C@H](CCN2CCN(c3noc4cc(Cl)c(F)cc34)CC2)CC1` [Example 71, N-trans-(4-{2-[4-(6-Chloro-5-fluoro-benzo[d]isoxazol-3-yl)-piperazin-1-yl]-ethyl}-cyclohexyl)-3-methoxy-propionamide], for which the pKi in assay [1] is 5.84; in assay [2] it was 7.05; in assay [3], 7.70.
With `Cc1cc(CC(=O)N[C@H]2CC[C@H](CCN3CCN(c4noc5cc(F)c(Cl)cc45)CC3)CC2)on1` [Example 82, N-trans-(4-{2-[4-(5-Chloro-6-fluoro-benzo[d]isoxazol-3-yl)-piperazin-1-yl]-ethyl}-cyclohexyl)-2-(3-methyl-isoxazol-5-yl)-acetamide], the figures for the pKi in assay [1], in assay [2] and in assay [3] were 4.95, 8.52 and 8.86, respectively.
The matching figures for `O=C(CC1C[C@@H]2CC[C@H]1O2)N[C@H]1CC[C@H](CCN2CCN(c3noc4ccc(F)cc34)CC2)CC1` (stereo in doubt) [Example 19, N-trans-(4-{2-[4-(5-Fluoro-benzo[d]isoxazol-3-yl)-piperazin-1-yl]-ethyl}-cyclohexyl)-2-(1R,4S)-7-oxa-bicyclo[2.2.1]hept-2-yl-acetamide]: 5.99, 7.69 and 7.44.
As to `CC1(C)CC(CC(=O)N[C@H]2CC[C@H](CCN3CCN(c4noc5ccc(F)cc45)CC3)CC2)CCO1` (mixture of isomers) [Example 18, Rac-2-(2,2-Dimethyl-tetrahydro-pyran-4-yl)-N-trans-(4-{2-[4-(5-fluoro-benzo[d]isoxazol-3-yl)-piperazin-1-yl]-ethyl}-cyclohexyl)-acetamide], the results for the pKi in assay [1], in assay [2] and in assay [3] were 6.05, 7.60 and 7.92, respectively.
